From article PMC6054832, “Novel pharmacological maps of protein lysine methyltransferases: key for target deorphanization” (Journal of Cheminformatics, 2018)

What was measured:
NSD1 [1] = biological target: T1, NSD1 (Homo sapiens, UniProt Q96L73); experiment: radioactive [3H]SAM methyltransferase assay with nucleosome substrate (Eurofins), […]; format: biochemical
SETD2 [2] = biological target: T2, SETD2 (Homo sapiens, UniProt Q9BYW2); experiment: biochemical; set-up: Eurofins radiometric methyltransferase inhibition assay with [3H]SAM and nucleosome, core histone or histone H3 substrate
Excerpt: (§1) Inhibitory activity assays for prospective validation

NSD1 [3] = biological target: T1, NSD1; experiment: biochemical; set-up: Eurofins radiometric methyltransferase inhibition assay with [3H]SAM and nucleosome, core histone or histone H3 substrate
Excerpt: as §1

KMT2A = KMT2A (Homo sapiens, UniProt Q03164); experiment: biochemical; set-up: Eurofins radiometric methyltransferase inhibition assay with [3H]SAM and nucleosome, core histone or histone H3 substrate
Chain of KMT2A (Q03164 whole entry): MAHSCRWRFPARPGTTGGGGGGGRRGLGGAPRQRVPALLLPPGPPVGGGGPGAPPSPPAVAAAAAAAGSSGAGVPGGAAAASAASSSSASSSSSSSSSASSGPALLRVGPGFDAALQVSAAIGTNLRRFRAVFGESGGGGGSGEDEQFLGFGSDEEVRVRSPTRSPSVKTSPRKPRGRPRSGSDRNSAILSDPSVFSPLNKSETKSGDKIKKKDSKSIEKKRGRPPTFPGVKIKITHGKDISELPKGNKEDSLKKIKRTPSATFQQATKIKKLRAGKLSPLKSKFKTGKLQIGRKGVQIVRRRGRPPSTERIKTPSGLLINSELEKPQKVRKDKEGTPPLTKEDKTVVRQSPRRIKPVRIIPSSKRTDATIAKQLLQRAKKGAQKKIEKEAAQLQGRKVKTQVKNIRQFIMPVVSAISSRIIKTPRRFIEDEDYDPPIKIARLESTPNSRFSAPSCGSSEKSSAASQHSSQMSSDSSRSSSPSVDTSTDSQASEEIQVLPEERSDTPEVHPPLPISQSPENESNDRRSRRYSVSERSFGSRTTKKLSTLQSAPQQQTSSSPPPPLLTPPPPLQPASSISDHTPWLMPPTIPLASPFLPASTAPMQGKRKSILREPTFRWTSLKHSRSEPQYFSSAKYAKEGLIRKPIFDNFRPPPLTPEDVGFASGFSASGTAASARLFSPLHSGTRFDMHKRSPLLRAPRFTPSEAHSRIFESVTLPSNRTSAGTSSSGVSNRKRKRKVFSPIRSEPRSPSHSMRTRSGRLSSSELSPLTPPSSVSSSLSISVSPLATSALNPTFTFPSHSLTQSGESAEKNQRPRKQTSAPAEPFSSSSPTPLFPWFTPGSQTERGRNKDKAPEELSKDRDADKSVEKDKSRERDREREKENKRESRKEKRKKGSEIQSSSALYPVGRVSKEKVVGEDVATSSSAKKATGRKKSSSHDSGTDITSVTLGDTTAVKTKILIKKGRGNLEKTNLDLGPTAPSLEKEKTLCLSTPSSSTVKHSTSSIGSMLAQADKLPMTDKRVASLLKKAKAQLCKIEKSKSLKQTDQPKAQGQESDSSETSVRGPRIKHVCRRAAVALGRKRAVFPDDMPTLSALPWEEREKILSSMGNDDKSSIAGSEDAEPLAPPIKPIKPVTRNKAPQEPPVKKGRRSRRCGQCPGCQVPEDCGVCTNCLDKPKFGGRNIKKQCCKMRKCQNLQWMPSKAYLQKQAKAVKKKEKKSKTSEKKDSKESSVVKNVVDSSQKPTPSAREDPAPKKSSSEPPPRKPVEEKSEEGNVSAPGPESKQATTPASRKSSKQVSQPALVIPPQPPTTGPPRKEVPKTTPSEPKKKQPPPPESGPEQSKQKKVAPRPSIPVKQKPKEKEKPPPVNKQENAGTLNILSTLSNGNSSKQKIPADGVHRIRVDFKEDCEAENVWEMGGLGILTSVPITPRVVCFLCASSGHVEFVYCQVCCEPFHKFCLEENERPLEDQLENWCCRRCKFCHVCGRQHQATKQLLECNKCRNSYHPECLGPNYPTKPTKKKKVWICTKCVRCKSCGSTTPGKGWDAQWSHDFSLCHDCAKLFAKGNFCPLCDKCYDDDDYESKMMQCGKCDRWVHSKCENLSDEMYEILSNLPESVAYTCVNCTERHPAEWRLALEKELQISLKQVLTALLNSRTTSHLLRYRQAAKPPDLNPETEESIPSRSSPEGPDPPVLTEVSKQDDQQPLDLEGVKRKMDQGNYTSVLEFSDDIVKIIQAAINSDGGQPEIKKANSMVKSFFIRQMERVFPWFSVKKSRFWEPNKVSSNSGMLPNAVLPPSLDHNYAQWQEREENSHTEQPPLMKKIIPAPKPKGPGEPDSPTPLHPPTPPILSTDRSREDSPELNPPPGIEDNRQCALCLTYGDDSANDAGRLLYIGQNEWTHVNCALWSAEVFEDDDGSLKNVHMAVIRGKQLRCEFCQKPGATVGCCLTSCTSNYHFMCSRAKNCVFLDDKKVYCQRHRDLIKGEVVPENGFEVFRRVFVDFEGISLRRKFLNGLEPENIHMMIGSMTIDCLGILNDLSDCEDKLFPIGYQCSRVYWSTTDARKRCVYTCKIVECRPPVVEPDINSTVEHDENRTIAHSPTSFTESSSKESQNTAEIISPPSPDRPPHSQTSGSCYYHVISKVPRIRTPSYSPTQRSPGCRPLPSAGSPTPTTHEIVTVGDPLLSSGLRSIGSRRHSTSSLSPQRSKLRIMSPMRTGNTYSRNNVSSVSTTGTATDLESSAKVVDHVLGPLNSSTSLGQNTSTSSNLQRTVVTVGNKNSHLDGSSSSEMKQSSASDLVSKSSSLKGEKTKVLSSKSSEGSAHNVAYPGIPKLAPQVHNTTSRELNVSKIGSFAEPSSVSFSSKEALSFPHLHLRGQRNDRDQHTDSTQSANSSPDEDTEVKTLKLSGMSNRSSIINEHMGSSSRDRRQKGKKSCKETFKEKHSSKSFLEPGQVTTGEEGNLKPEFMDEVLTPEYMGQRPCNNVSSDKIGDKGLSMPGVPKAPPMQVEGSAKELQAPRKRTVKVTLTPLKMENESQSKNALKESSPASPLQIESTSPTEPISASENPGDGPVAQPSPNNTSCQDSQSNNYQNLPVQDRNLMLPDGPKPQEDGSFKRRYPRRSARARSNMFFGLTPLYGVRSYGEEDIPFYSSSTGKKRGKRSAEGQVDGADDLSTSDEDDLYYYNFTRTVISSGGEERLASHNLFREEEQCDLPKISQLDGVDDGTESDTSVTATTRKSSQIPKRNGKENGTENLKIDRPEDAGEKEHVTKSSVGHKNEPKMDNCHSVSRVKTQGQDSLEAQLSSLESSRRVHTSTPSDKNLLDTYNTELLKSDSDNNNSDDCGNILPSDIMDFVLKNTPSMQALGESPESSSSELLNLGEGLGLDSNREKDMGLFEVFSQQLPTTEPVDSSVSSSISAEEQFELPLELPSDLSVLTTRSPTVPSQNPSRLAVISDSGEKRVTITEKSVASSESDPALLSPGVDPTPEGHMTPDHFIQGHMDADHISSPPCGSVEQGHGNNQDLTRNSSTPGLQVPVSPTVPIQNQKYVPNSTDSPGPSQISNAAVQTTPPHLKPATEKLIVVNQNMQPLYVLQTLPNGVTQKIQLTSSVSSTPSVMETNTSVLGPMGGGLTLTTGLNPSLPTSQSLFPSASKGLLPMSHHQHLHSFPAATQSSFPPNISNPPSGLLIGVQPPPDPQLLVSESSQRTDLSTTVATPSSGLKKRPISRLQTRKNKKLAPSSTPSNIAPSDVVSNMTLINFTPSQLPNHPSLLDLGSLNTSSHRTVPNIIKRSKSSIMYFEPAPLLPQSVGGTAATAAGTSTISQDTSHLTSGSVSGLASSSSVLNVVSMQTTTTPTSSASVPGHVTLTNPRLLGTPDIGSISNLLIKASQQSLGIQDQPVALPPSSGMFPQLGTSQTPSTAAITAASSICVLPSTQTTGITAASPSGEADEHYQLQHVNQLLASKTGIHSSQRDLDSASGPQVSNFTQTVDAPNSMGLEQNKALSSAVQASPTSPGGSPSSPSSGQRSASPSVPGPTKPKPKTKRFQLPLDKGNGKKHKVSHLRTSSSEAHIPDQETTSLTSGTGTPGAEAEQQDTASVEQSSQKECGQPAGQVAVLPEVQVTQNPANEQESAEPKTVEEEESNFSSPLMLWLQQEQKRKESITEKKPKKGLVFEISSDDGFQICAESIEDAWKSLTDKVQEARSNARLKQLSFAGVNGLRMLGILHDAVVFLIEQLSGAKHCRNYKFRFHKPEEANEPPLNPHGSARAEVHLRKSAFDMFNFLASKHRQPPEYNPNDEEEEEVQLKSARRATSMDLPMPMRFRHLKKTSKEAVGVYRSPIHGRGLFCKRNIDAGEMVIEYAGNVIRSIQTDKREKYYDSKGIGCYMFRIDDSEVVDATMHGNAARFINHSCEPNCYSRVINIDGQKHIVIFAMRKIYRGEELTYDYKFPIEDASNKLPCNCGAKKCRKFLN
Excerpt: as §1

KMT5C [4] = biological target: T3, KMT5C (Homo sapiens, UniProt Q86Y97); experiment: biochemical; set-up: Eurofins radiometric methyltransferase inhibition assay with [3H]SAM and nucleosome, core histone or histone H3 substrate
T3 sequence (Q86Y97 whole entry): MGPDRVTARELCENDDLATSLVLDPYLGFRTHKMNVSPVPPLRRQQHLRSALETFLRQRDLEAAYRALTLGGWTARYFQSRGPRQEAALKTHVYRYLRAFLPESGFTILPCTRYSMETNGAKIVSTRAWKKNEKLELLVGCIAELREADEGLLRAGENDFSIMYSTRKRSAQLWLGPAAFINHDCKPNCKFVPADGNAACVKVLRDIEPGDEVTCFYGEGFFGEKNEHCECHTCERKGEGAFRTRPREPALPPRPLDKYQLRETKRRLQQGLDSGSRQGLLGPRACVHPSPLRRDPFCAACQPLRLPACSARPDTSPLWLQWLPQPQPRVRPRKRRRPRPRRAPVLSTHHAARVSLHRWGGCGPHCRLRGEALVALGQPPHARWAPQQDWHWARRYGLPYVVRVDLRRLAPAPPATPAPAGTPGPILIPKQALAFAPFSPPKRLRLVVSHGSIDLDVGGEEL
Excerpt: as §1

NSD2 = biological target: T4, NSD2 (Homo sapiens, UniProt O96028); experiment: biochemical; set-up: Eurofins radiometric methyltransferase inhibition assay with [3H]SAM and nucleosome, core histone or histone H3 substrate
T4 sequence (O96028 1-1365): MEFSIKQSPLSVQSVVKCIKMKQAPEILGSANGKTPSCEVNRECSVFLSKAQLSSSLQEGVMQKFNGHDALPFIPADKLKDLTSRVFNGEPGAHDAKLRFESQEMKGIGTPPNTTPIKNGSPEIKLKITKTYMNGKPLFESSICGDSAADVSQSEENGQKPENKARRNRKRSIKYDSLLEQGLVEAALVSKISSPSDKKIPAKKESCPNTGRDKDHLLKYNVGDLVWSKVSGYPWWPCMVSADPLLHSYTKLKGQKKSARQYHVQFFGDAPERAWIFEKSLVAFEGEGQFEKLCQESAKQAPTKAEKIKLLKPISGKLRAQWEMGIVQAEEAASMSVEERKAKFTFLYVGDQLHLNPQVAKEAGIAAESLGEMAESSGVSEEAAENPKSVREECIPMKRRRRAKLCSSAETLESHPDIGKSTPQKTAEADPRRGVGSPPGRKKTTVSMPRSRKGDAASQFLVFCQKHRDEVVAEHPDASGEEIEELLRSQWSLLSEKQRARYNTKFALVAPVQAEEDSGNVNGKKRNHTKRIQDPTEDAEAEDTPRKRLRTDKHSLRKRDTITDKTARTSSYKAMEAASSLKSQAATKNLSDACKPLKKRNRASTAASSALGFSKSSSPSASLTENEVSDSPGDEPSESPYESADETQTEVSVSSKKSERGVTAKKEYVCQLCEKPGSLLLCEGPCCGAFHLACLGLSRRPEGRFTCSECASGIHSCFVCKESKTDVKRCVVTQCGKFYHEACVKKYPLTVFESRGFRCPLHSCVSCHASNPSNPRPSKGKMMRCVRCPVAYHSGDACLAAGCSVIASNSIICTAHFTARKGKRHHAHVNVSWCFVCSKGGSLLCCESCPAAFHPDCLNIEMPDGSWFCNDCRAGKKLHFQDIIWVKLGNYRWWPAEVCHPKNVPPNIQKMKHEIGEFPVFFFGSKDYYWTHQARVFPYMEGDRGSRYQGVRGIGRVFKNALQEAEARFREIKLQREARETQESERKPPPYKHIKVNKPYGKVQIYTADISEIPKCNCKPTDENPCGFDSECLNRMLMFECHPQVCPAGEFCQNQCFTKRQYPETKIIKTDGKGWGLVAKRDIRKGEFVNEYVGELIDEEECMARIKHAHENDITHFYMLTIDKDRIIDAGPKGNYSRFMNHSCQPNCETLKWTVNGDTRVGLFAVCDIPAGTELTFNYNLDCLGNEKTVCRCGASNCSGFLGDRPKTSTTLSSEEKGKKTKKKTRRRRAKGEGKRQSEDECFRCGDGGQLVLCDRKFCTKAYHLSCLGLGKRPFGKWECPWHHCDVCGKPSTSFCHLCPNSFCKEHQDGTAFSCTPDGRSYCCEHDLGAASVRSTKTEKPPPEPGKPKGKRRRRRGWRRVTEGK
Excerpt: as §1

KMT5C [5] = biological target: T3, KMT5C; experiment: radioactive [3H]SAM methyltransferase assay with nucleosome substrate (Eurofins), […]; format: biochemical
SETD2 [6] = biological target: T2, SETD2; experiment: as above; format: biochemical

Structure (SMILES) | inhibition at 10 µM (NSD1 [1]) [%] | inhibition at 100 µM (SETD2 [2]) [%] | inhibition at 10 µM (NSD1 [3]) [%] | inhibition at 100 µM (NSD1 [3]) [%] | inhibition at 10 µM (KMT2A) [%] | inhibition at 100 µM (KMT2A) [%] | inhibition at 10 µM (KMT5C [4]) [%] | inhibition at 100 µM (KMT5C [4]) [%] | inhibition at 10 µM (NSD2) [%] | inhibition at 100 µM (NSD2) [%] | radioactive [3H]SAM methyltransferase assay with nucleosome substrate (Eurofins) (KMT5C [5]) | inhibition at 100 µM (SETD2 [6]) [%] | inhibition at 10 µM (SETD2 [2]) [%]
COc1cc2c(NC3CCN(C)CC3)cc(-c3ccc(C)o3)nc2cc1OCCCN1CCCC1 [CM-272] | > 50 | 45.9 | 63.5 | 97.8 | -1 | 7.4 | 92 | 91.8 | -0.5 | 11.7 | low micromolar range | – | –
COc1cc2c(NC3CC4(CCN(C)CC4)C3)cc(-c3ccc(C)o3)nc2cc1OCCCN1CCCC1 [CM-679] | > 50 | – | 81.7 | 98 | 8.6 | 48.8 | 85.7 | 92.9 | 11.9 | 0.3 | low micromolar range | 84 | -52.4
COc1cc2c(NC3CCN(C)CC3)cc(-c3ccc(C)o3)nc2cc1OC1CC2(C1)CN(C)C2 [CM-986] | > 50 | 42.1 | 55.9 | 98.8 | 2.9 | 30.5 | 79.1 | 87.7 | -7.2 | 2.7 | low micromolar range | – | -69.8
